Series [1] has as its system lung strip isolated from guinea pig. Nature of the series: arachidonic acid-induced contraction of lung strip isolated from guinea pig. The settings on record: Cavia porcellus; 10 μM compound; 0.1 μM to 100 μM arachidonic acid; read-out: reduction in contractile response to arachidonic acid. From the text: Action of 5-methyl-2-hydroxy-laurophenone-oxime on arachidonic acid-inducedcontraction of lung strip isolated from guinea pig:
The experimental arrangement for this test system was analogous to that described in Example 15, through lung strip isolated from guinea pig was the subject of testing. Contraction, in this test, was induced by rising concentrations of arachidonic acid (concentrated solution in ethanol, kept in N2 atmosphere) and cumulatively measured.

The target of series [2] is T1, lipoxygenase from rabbit reticulocytes (Oryctolagus cuniculus, UniProt P12530).
T1 construct: Lipoxygenase from rabbit reticulocytes was obtained in electrophoretically and immunologically pure form; from tissue; host or cells: rabbit reticulocytes
T1 sequence (P12530 1-663): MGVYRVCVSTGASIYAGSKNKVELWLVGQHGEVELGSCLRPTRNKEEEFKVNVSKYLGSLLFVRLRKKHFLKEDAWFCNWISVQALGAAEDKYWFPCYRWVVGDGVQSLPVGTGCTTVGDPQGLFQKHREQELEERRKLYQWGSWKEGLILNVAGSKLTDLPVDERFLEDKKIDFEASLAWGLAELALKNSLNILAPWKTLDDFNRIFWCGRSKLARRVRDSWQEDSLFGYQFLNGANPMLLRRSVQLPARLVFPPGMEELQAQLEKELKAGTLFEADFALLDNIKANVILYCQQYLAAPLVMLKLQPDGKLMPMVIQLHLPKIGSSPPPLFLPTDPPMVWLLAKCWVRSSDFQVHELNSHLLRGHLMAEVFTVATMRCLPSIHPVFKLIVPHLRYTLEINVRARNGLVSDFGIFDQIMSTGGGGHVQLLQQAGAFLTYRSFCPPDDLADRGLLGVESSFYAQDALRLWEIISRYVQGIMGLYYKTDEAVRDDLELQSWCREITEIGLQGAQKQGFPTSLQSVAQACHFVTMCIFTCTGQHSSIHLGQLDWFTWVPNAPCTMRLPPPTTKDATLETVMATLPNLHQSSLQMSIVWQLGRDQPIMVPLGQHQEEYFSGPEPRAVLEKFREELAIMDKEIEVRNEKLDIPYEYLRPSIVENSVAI
Nature of the series: inhibition of activity of lipoxygenase from rabbit reticulocytes. It counts as biochemical. The method, then: (§1) Persuasive evidence to inhibition of lipoxygenase was produced by a suitable animal lipoxygenase which had been isolated from rabbit reticulocytes, using a method by Rapoport and coworkers /S. M. Rapoport et al., Eur. J. Biochem. 96, 545 (1979)/. A final concentration of 1 mM of most of the compounds, according to this invention, produced inhibition of 90 percent or more (cf. Example 20). Significant inhibition was even recordable from a final concentration of 0.1 mM of some of the compounds, according to this invention. Substance concentrations were varied to determine the titration curves of inhibition and from these the half-inhibition concentrations (I50 -values). A half-inhibition concentration of 7 μM was established for 5-methyl-2-hydroxy-laurophenone-oxime, an oxime of high anti-asthmatic effectiveness.
Inhibition of activity of lipoxygenase from rabbit reticulocytes:
(§2) Lipoxygenase from rabbit reticulocytes was obtained in electrophoretically and immunologically pure form by means of the method described in the literature /S. M. Rapoport et al., Eur. J. Biochem. 96, 545 (1979)/. Lipoxygenase activity was determined at 25° C. by amperometric measurement of oxygen consumption by means of a Clark electrode in the following system: 0.1M potassium phosphate, pH 7.4, with 0.2-per-cent sodium cholate and 0.53 mM linoleic acid. The enzyme concentration was […] in the sample for measurement. The substances submitted for testing were dissolved in methyl glycol (fresh distillation in vacuum) and pre-incubated ten minutes with the enzyme at measurement temperature and in the absence of sodium cholate and linoleic acid. […] No remarkable inhibition occurred to control samples under these conditions. Enzyme reaction was started by addition of sodium cholate and linoleic acid. The titration curve of inhibition and, consequently, the concentrations required for inhibition by the order of 50 per cent were determined by variation of active substance concentrations. For comparison, the compounds were tested also on commercial lipoxygenase-1 from soybean.

The target of series [3] is T2, lipoxygenase-1 from soybean (Glycine max, UniProt P08170).
T2 construct: purchased
T2 sequence (P08170 1-839): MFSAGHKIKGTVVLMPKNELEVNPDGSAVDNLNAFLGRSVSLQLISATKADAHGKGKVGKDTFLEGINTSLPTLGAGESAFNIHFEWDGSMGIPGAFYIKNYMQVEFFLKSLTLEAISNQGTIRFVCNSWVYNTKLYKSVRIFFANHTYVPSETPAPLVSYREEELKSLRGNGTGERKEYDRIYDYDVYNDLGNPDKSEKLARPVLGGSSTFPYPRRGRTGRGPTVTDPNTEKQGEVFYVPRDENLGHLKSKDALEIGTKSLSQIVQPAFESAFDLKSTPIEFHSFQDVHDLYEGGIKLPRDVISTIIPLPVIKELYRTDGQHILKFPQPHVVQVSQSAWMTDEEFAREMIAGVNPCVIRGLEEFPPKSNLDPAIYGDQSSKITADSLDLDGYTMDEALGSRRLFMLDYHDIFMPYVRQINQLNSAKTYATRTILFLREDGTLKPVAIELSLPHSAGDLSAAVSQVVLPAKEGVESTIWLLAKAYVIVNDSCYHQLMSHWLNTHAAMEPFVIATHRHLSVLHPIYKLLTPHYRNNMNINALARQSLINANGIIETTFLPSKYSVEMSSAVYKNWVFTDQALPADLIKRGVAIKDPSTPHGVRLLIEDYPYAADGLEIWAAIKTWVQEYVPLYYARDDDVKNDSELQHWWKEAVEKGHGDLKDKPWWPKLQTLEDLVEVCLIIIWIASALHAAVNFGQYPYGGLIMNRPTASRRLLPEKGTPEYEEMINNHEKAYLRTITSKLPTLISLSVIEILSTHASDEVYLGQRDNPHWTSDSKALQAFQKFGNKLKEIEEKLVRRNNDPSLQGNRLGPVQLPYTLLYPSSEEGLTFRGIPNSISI
Kind of series: inhibition of soybean lipoxygenase-1. It counts as biochemical. The settings on record: ultimate concentration 1.0 mM; read-out: Inhibition (percent) of lipoxygenase from soybean. The method, then:
as §1, §2

Series [4] can be described thus: solubility in water. It counts as physicochemical. The settings on record: visible from unambiguous clouding of the sample.

As for `CCCCCCCCCCCC(=NO)c1cc(C)ccc1O` [5-methyl-2-hydroxy-laurophenone-oxime], the inhibition at 10 µM in series [1] stood at 70%. In addition, the IC50 in series [2] (limited by solubility, real I50 said to be very much lower, read-out: half-inhibition concentration (I50)) was found to be 7 µM. The inhibition at 1000 µM in series [2] (ultimate concentration 1.0 mM, read-out: Inhibition (percent) of lipoxygenase from reticulocytes) came to 100%; in series [3] it was 67%. In series [4], the solubility in water result is recorded as “limited solubility in water”.

These data come from patent publication US4816487A, “1-(2-hydroxyaryl)-alkane-1-on-oximes-procedure of preparation and use in pharmaceuticals” (Humboldt-Universitaet zu Berlin, priority 1985, dated 1989).
